# Patent US20240132431A1, “METHOD FOR ALKYLATING ACIDIC FUNCTIONAL GROUP” (Chugai Seiyaku Kabushiki Kaisha, priority 2021, published 2024)
# Molecular target: T1, Bcl-2 protein (Recombinant Human Bcl-2 Protein) (Homo sapiens, UniProt P10415)
# T1 construct: purchased Novus NBP2-34889
# Assay: Binding evaluation of mixture library compounds to Bcl-2 using AS-MS (affinity selection mass spectrometry)
# Settings: for ASMS ratio (%) n = 1 / ASMS ratio (%) n = 2: ASMS Ratio(%)=(A−C)/B×100; for ASMS ratio (%) n = 1: replicate n = 1; for ASMS ratio (%) n = 2: replicate n = 2
# Outline: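 Readout is ASMS Ratio (%), (A−C)/B×100, from reversed-phase LC/MS of SEC-passed extracts, with protein-free unfiltered standard (B) and protein-free SEC blank (C). Recombinant human Bcl-2 at 20 μM final met ~1200 pooled compounds at […] each for 1 h, 23° C., dark, in Tris-HCl pH 7.4 buffer.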
# [1] = AS-MS, mixture of 1200 compounds, Bcl-2
# [2] = AS-MS on the mixture of 1200 library compounds
# T1 sequence (P10415 whole entry): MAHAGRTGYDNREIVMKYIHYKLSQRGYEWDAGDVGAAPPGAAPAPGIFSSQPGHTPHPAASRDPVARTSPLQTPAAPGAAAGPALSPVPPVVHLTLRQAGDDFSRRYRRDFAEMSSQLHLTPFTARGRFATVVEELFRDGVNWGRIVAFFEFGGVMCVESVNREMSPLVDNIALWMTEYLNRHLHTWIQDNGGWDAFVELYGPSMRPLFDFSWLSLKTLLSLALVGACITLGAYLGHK
ASMS ratio (%) (n = 1),ASMS ratio (%) (n = 2),ASMS ratio (%) n = 1 [2] [%],ASMS ratio (%) n = 2 [2] [%],Molecule,also measured
0.0,0.0,–,–,"CCOc1cccc(-c2cc(C(=O)N3CCN(c4ccc(C(=O)NS(=O)(=O)C(C)(C)C)cc4)CC3)cc(C(F)(F)F)c2)c1 [B2L039-01, N-tert-Butylsulfonyl-4-[4-[3-(3-ethoxyphenyl)-5-(trifluoromethyl)benzoyl]piperazin-1-yl]benzamide]",–
–,–,3.7,0.5,"CCOc1cncc(-c2csc(CN3CCN(c4ccc(C(=O)N(C)CC56CC7CC(CC(C7)C5)C6)nn4)CC3)c2)c1 [B3A094-01, N-(1-Adamantylmethyl)-6-[4-[[4-(5-ethoxypyridin-3-yl)thiophen-2-yl]methyl]piperazin-1-yl]-N-methylpyridazine-3-carboxamide]",–
–,–,2.5,2.4,"CCOc1cncc(-c2cc(CN3CCN(c4ccc(C(=O)N(C)CC56CC7CC(CC(C7)C5)C6)nn4)CC3)cc(C(F)(F)F)c2)c1 [B3A088-01, N-(1-Adamantylmethyl)-6-[4-[[3-(5-ethoxypyridin-3-yl)-5-(trifluoromethyl)phenyl]methyl]piperazin-1-yl]-N-methylpyridazine-3-carboxamide]",–
–,–,6.1,−4.3,"CCOc1cncc(-c2ccc(CN3CCN(c4ccc(C(=O)N(C)CC56CC7CC(CC(C7)C5)C6)cc4)CC3)c(CC)c2)c1 [B3A050-01, N-(1-Adamantylmethyl)-4-[4-[[4-(5-ethoxypyridin-3-yl)-2-ethylphenyl]methyl]piperazin-1-yl]-N-methylbenzamide]",–
0.0,0.0,–,–,"CCOc1cncc(-c2ccc(CN3CCN(c4ccc(C(=O)NS(C)(=O)=O)cc4)CC3)c3ccccc23)c1 [B2I066-01, 4-[4-[[4-(5-Ethoxypyridin-3-yl)naphthalen-1-yl]methyl]piperazin-1-yl]-N-methylsulfonylbenzamide]",–
3.9,0.0,–,–,"CCOc1cncc(-c2cc(OC)c(CN3CCN(c4ccc(C(=O)NS(=O)(=O)c5ccc(NCCSc6ccccc6)c(C(F)(F)F)c5)cc4)CC3)c(OC)c2)c1 [B2R060-01, 4-[4-[[4-(5-Ethoxypyridin-3-yl)-2,6-dimethoxyphenyl]methyl]piperazin-1-yl]-N-[4-(2-phenylsulfanylethylamino)-3-(trifluoromethyl)phenyl]sulfonylbenzamide]",–
5.7,−5.1,–,–,"CCOc1cccc(-c2cc(CN3CCN(c4ccc(C(=O)NS(=O)(=O)c5ccc(NCCSc6ccccc6)c(C(F)(F)F)c5)cc4)CC3)cc(OC(C)C)c2)c1 [B2R057-01, 4-[4-[[3-(3-Ethoxyphenyl)-5-propan-2-yloxyphenyl]methyl]piperazin-1-yl]-N-[4-(2-phenylsulfanylethylamino)-3-(trifluoromethyl)phenyl]sulfonylbenzamide]",–

# The next lines start with the molecule.
Molecule,ASMS ratio (%) (n = 1),ASMS ratio (%) (n = 2),ASMS ratio (%) n = 1 [2] [%],ASMS ratio (%) n = 2 [2] [%],also measured
6-[4-[[4-(3-Ethoxyphenyl)-2-ethylphenyl]methyl]piperazin-1-yl]-N-propylpyridazine-3-carboxamide [B1M070-01],–,–,–,–,ASMS ratio (%) n = 1 [1]: 0.0%; ASMS ratio (%) n = 2 [1]: 0.0%
"CCOc1cncc(-c2cc(CN3CCN(c4ccc(C(=O)NS(=O)(=O)CC56CC7CC(CC(C7)C5)C6)cc4)CC3)cc(OC(C)C)c2)c1 [B2A058-01, N-(1-Adamantylmethylsulfonyl)-4-[4-[[3-(5-ethoxypyridin-3-yl)-5-propan-2-yloxyphenyl]methyl]piperazin-1-yl]benzamide]",–,–,–,–,"ASMS ratio (%) n = 1 (AS-MS, mixture library, Bcl-2): 4.8%; ASMS ratio (%) n = 2 (AS-MS, mixture library, Bcl-2): −10.6%"
"CCOc1cccc(C#Cc2cc(C(=O)N3CCN(c4ccc(C(=O)NS(=O)(=O)CC56CC7CC(CC(C7)C5)C6)nn4)CC3)cc(C(F)(F)F)c2)c1 [B2A019-01, N-(1-Adamantylmethylsulfonyl)-6-[4-[3-[2-(3-ethoxyphenyl)ethynyl]-5-(trifluoromethyl)benzoyl]piperazin-1-yl]pyridazine-3-carboxamide]",–,–,–,–,"ASMS ratio (%) n = 1 (AS-MS, mixture library, Bcl-2): 7.4%; ASMS ratio (%) n = 2 (AS-MS, mixture library, Bcl-2): 5.0%"
"CCOc1cccc(-c2ccc(CN3CCN(c4ccc(C(=O)NS(=O)(=O)c5ccc(NCCSc6ccccc6)c(C(F)(F)F)c5)cc4)CC3)cc2F)c1 [B2R051-01, 4-[4-[[4-(3-Ethoxyphenyl)-3-fluorophenyl]methyl]piperazin-1-yl]-N-[4-(2-phenylsulfanylethylamino)-3-(trifluoromethyl)phenyl]sulfonylbenzamide]",12.7,−1.8,–,–,–
"CCOc1cccc(-c2ccc(CN3CCN(c4ccc(C(=O)NS(C)(=O)=O)nn4)CC3)c(OC)c2)c1 [B2I079-01, 6-[4-[[4-(3-Ethoxyphenyl)-2-methoxyphenyl]methyl]piperazin-1-yl]-N-methylsulfonylpyridazine-3-carboxamide]",0.0,0.0,–,–,–
4-[4-[[4-(3-Ethoxyphenyl)-2-methoxyphenyl]methyl]piperazin-1-yl]-N-propylbenzamide [B1M093-01],–,–,0.0,0.0,–
"CCOc1cccc(C#Cc2ccccc2CN2CCN(c3ccc(C(=O)Nc4ccc(OC)cc4)cc3)CC2)c1 [B1O069-01, 4-[4-[[2-[2-(3-Ethoxyphenyl)ethynyl]phenyl]methyl]piperazin-1-yl]-N-(4-methoxyphenyl)benzamide]",–,–,6.2,−2.4,–
CCOc1cncc(-c2ccc(CN3CCN(c4ccc(C(=O)NS(=O)(=O)C(C)(C)C)cc4)CC3)cc2C)c1 [B2L048-01],3.9,−5.0,–,–,–
"CCOc1cccc(-c2cc(CN3CCN(c4ccc(C(=O)NCC56CC7CC(CC(C7)C5)C6)cc4)CC3)cc(OCC)c2)c1 [B1A055-01, N-(1-Adamantylmethyl)-4-[4-[[3-ethoxy-5-(3-ethoxyphenyl)phenyl]methyl]piperazin-1-yl]benzamide]",–,–,–,–,ASMS ratio (%) n = 1 [1]: −0.1%; ASMS ratio (%) n = 2 [1]: −14.4%
"CCOc1cccc(-c2cc(CN3CCN(c4ccc(C(=O)NS(=O)(=O)CC56CC7CC(CC(C7)C5)C6)cc4)CC3)cc(OC(F)(F)F)c2)c1 [B2A063-01, N-(1-Adamantylmethylsulfonyl)-4-[4-[[3-(3-ethoxyphenyl)-5-(trifluoromethoxy)phenyl]methyl]piperazin-1-yl]benzamide]",–,–,–,–,"ASMS ratio (%) n = 1 (AS-MS, mixture library, Bcl-2): 0.5%; ASMS ratio (%) n = 2 (AS-MS, mixture library, Bcl-2): 3.3%"
"CCOc1cccc(-c2ccc(C(C)N3CCN(c4ccc(C(=O)Nc5ccc(OC)cc5)cc4)CC3)c(F)c2)c1 (stereo not drawn) [B1O099-01, 4-[4-[1-[4-(3-Ethoxyphenyl)-2-fluorophenyl]ethyl]piperazin-1-yl]-N-(4-methoxyphenyl)benzamide]",–,–,4.7,1.7,–
"CCOc1cncc(-c2cnn(-c3cc(C(=O)N4CCN(c5ccc(C(=O)N(CC)CC)nn5)CC4)cc(C(F)(F)F)c3)c2)c1 [B4J022-01, 6-[4-[3-[4-(5-Ethoxypyridin-3-yl)pyrazol-1-yl]-5-(trifluoromethyl)benzoyl]piperazin-1-yl]-N,N-diethylpyridazine-3-carboxamide]",–,–,0.2,−0.7,–
CCCNC(=O)c1ccc(N2CCN(Cc3ccccc3C#Cc3cccc(OCC)c3)CC2)cc1 [B1M052-01],–,–,–,–,ASMS ratio (%) n = 1 [1]: 27.6%; ASMS ratio (%) n = 2 [1]: 20.2%
"CCOc1cncc(-c2cc(C(=O)N3CCN(c4ccc(C(=O)N(CC)CC)nn4)CC3)cc(C(C)(C)C)c2)c1 [B4J016-01, 6-[4-[3-tert-Butyl-5-(5-ethoxypyridin-3-yl)benzoyl]piperazin-1-yl]-N,N-diethylpyridazine-3-carboxamide]",–,–,0.0,0.9,–
